In paper PMC5400099, “5-Hydroxyethyl-3-tetradecanoyltetramic acid represents a novel treatment for intravascular catheter infections due to Staphylococcus aureus” (Journal of Antimicrobial Chemotherapy, 2016):
Values after ≈ are worked out from the molar mass of the structure shown. Values joined by “and” are separate entries in the source; they are usually repeats but may differ in a detail not shown here. Equal entries are not always repeated. Where two headings read alike, the source gives them in different places.

Columns and labels:
S. aureus biofilms [1] = test: Biofilm susceptibility, resazurin-conversion assay on plasma-coated wells; format: cell-based, Staphylococcus aureus; parameters: Reduction of MRSA biofilm viability: dose or concentration left out as unconfirmed; conditions: for Reduction of biofilm viability: 512 and 1024 mg/L, 24 h treatment; for Comparative anti-biofilm activity: MRSA and MSSA biofilms, compared with the other agents evaluated
Protocol: Biofilms were formed as previously described to mimic in vivo conditions that promote formation of coagulase-mediated biofilms.[16] Briefly, microtitre plates or glass-bottom culture dishes (MaTek Co., USA) were coated with either 20% (v/v) or 100% (v/v) human plasma, respectively, and inoculated with S. aureus at an OD600 ∼0.2. After 1 h, non-adherent bacteria were aspirated, replaced with fresh RPMI-1640 and biofilms allowed to form over 24 h at 37 °C. Pre-formed biofilms were treated for 24 h with either 5HE-C14-TMA, C14-TOA or C14-TTA or a positive control [ethanol at 40% (v/v)]. Biofilm viability was measured by (i) resazurin-conversion assay (in microtitre wells), or (ii) live/dead imaging (glass-bottom dishes). Conversion of the non-fluorescent redox dye, resazurin into the fluorescent resorufin was performed as described previously.[16] A 44 μM resazurin (Sigma-Aldrich, UK) solution in RPMI-1640 was added to an equal biofilm volume and incubated for 1 h at 37 °C. Fluorescence (excitation 544 nm, emission 590 nm) was quantified using a Perkin Elmer 2030 Multilabel Reader Victor^TM X3. Biofilms were stained with SYTO9 Green (at 13.36 μM) and propidium iodide (at 80 μM) (Molecular Probes®) for 1 h prior to washing. Four representative images at ×40 and ×100 were obtained per experimental group, per experiment using a Zeiss LSM 510 META confocal microscope. Each experiment was repeated at least three times. Fluorescence intensity was quantified using Image J1 software (http://imagej.net/Welcome).

S. aureus [2] = conditions: cited from earlier work
[3] = system: Human keratinocyte (HaCaT) cells; test: MTT cell viability assay, HaCaT; format: cell-based; conditions: HaCaT cells
Protocol: (§1) Human keratinocyte (HaCaT) cells were cultured in DMEM supplemented with 10% (v/v) FBS. Primary human umbilical vein endothelial cells (HUVECs) were cultured in EGM™-2 Bulletkit (Lonza) medium. HaCaT and HUVECs were harvested using TrypLE^TM Express (Gibco). Cells were seeded in microtitre plates at 3 × 10^5 cells/mL and incubated for 24 h at 37 °C with an antimicrobial compound ([…]) or Triton X100 at 1% (v/v). After removing the medium, cells were incubated with 500 mg/L MTT (Sigma-Aldrich) for 4 h. The crystals formed were solubilized with DMSO. Absorbance was recorded at 560 nm and the CC50 was determined.

[4] = MTT cell viability assay, HaCaT; format: cell-based, Human; conditions: human, HaCaT keratinocyte cells; HaCaT, MTT, 24 h
Protocol: as §1

[5] = system: Primary human umbilical vein endothelial cells (HUVECs); test: MTT cell viability assay, HUVEC; format: cell-based; conditions: HUVECs
Protocol: as §1

[6] = MTT cell viability assay, HUVEC; format: cell-based, human; conditions: human, primary HUVECs (umbilical vein endothelial cells); HUVEC, MTT, 24 h
Protocol: as §1

S. aureus strain BH48 = test: MIC by broth microdilution (CLSI), strain BH48; format: cell-based; conditions: Staphylococcus aureus; BH48 (MSSA), Mueller–Hinton broth
Protocol: (§2) Community-acquired MRSA (CA-MRSA) strain USA300, its isogenic agr mutant,[17] the hospital-acquired MRSA (HA-MRSA) strain BH1CC,[18] the HA-MSSA strain BH48[19] and the MSSA strain SH1000[20] were cultured in Mueller–Hinton broth for susceptibility testing or in RPMI-1640 (Gibco) for biofilm formation. For the rat jugular vein catheter infection model, the S. aureus strain USA300 (LAC) lux[21] was used.
(§3) 5HE-C14-TMA and C14-TOA were synthesized as described previously[9] and C14-TTA as described in the Supplementary data available at JAC Online. Stock solutions of the compounds in DMSO at 10–50 mM were further diluted into tissue culture media or sodium chloride for the in vivo experiments. A DMSO solvent control was used in all in vitro experiments. The following antibiotics were used: vancomycin (Vancocin; Flynn Pharma Ltd., Republic of Ireland), daptomycin (Cubicin; Novartis, UK), gentamicin (Hospira, UK) and tigecycline (Tygacil; Pfizer Inc.). MICs were determined by broth microdilution in Mueller–Hinton broth, as recommended by the CLSI.

S. aureus strain SH1000 = test: MIC by broth microdilution (CLSI), strain SH1000; format: cell-based; conditions: Staphylococcus aureus; SH1000 (MSSA), Mueller–Hinton broth
Protocol: as §2, §3

Haemolysis assay = format: cell-based; conditions: red blood cells; human RBC; read-out: CC50 (haemolytic activity)
Protocol: Human blood containing EDTA (1.6 g/L) was centrifuged at 1000 g for 5 min. Red blood cells (RBC) were washed twice with PBS, diluted 2-fold and incubated with compounds or Triton X100 (positive control) at 0.5% (v/v). A570 was determined to quantify haemolysis. IC50s were derived from the corresponding dose–response curves.

Iron chelation = format: physicochemical; conditions: data not shown
staphylococcal membrane = system: staphylococcal membrane; parameters: method as in PMID 24592914; conditions: binding to the staphylococcal membrane, single site model; cited from earlier work
[7] = system: agr quorum sensing system; parameters: method as in PMID 24592914; conditions: S. aureus; cited from earlier work
S. aureus strain BH1CC = test: MIC by broth microdilution (CLSI), strain BH1CC; format: cell-based; conditions: Staphylococcus aureus; BH1CC (MRSA), Mueller–Hinton broth
Protocol: as §2, §3

[8] = system: MRSA (USA300 JE2 and BH1CC) and MSSA (SH1000 and BH48) strains; test: MIC by broth microdilution, MRSA and MSSA strains; format: cell-based, Staphylococcus aureus; conditions: MRSA and MSSA strains investigated
Protocol: as §2, §3

S. aureus [9] = system: S. aureus; parameters: method as in PMID 24592914; conditions: cited from earlier work; for Effect on frequency and severity of arthritis: murine S. aureus arthritis model
S. aureus strain USA300 = test: MIC by broth microdilution (CLSI), strain USA300; format: cell-based; conditions: Staphylococcus aureus; USA300 (MRSA), Mueller–Hinton broth
Protocol: as §2, §3

S. aureus USA300 LAC = test: Bactericidal activity (time-kill, viable counts); format: cell-based, Staphylococcus aureus; conditions: 8 × MIC, planktonic USA300
Protocol: S. aureus USA300 LAC was grown overnight in LB medium, diluted 250-fold and grown to an OD600 0.5. Cells were diluted to 1 × 10^6 per mL in challenge medium (LB plus 5HE-C14-TMA, C14-TOA or C14-TTA at 8 × MIC). Samples were removed and viable counts determined at 30 min intervals for the first hour followed by hourly sampling. The CLSI defines a compound as bactericidal if it reduces the starting inoculum colony count by at least 99.9% (3-logs).

[10] = system: S. aureus strain USA300 LAC; test: Membrane permeabilization: ATP release; format: cell-based, Staphylococcus aureus; conditions: 0-100 μM, 1 h
Protocol: (§4) Membrane permeabilization was evaluated by quantifying (i) ATP release,[22] and (ii) the uptake of propidium iodide.[22]S. aureus strain USA300 LAC was grown overnight in CYGP medium,[9] washed with sodium phosphate buffer (100 mM, pH 7), re-suspended to OD600 0.1 and incubated at 37 °C with a range of concentrations of each compound for 1 h. Nisin (0.6 μM) was used as a positive control. Cell-free supernatants were assayed for ATP using the Cell Titre-Glo kit (Promega). Staphylococcal cells were re-suspended in 100 mM sodium phosphate buffer (pH 7) containing propidium iodide (10 mg/L), incubated in the dark at room temperature for 10 min. After washing, propidium iodide fluorescence (excitation: 575 nm; emission 630 nm) was determined.

[11] = system: S. aureus strain USA300 LAC; test: Membrane permeabilization: propidium iodide uptake; format: cell-based, Staphylococcus aureus; conditions: 0-100 μM, 1 h
Protocol: as §4

S. aureus [12] = system: S. aureus; parameters: method as in PMID 15623555, PMID 19807189; conditions: sub-growth inhibitory concentrations; cited from earlier work
S. aureus biofilms [13] = system: S. aureus biofilms; parameters: method as in PMID 19807189; conditions: cited from earlier work

Compound: CN[C@H](CC(C)C)C(=O)N[C@H]1C(=O)N[C@@H](CC(N)=O)C(=O)N[C@H]2C(=O)N[C@H]3C(=O)N[C@H](C(=O)N[C@H](C(=O)O)c4cc(O)cc(O)c4-c4cc3ccc4O)[C@H](O)c3ccc(c(Cl)c3)Oc3cc2cc(c3O[C@@H]2O[C@H](CO)[C@@H](O)[C@H](O)[C@H]2O[C@H]2C[C@](C)(N)[C@H](O)[C@H](C)O2)Oc2ccc(cc2Cl)[C@H]1O [vancomycin, reference compound]
- Reduction of MRSA biofilm viability (S. aureus biofilms [1]; MRSA biofilm, resazurin): 3.5–4 fold

Compound: CCCCCCCCCC(=O)C1C(=O)CNC1=O (centres unmarked) [C10-TMA, reference compound]
- Antibacterial activity after removal of the 5-hydroxyethyl moiety of 5HE-C10-TMA (S. aureus [2]): did not reduce antibacterial activity

Compound: CCCCCCCCCCCCCC(=O)C1=C(O)OCC1=O [C14-TOA, 3-tetradecanoyltetronic acid]
- MIC (S. aureus [2]; towards S. aureus): 25 µM (≈ 7.76 µg/mL)
- Selectivity index (SI, CC50/MIC) [3]: 20
- CC50 at 24 h [4]: 257 µM and 80 µg/mL
- Selectivity index (SI, CC50/MIC) [5]: 2.3
- CC50 at 24 h [6]: 28 µM and 9 µg/mL
- MIC (S. aureus strain BH48): 12.5 µM and 4 µg/mL
- MIC (S. aureus strain SH1000): 12.5 µM and 4 µg/mL
- CC50 (Haemolysis assay): > 2.05 mM and > 667 µg/mL
- Iron chelation (Iron chelation): do not chelate iron
- Reduction of biofilm viability (S. aureus biofilms [1]; resazurin): 2.5–3 fold
- Comparative anti-biofilm activity (S. aureus biofilms [1]): far less effective
- Kd (staphylococcal membrane): 2000 nM
- IC50 [7]: 3000 nM
- MIC (S. aureus strain BH1CC): 12.5 µM and 4 µg/mL
- MIC [8]: 4 µg/mL (≈ 12.9 µM)
- MIC ([8]; Staphylococcus aureus): 2 to 4 µg/mL (≈ 6.44 to 12.9 µM)
- Toxicity in murine arthritis model (S. aureus [9]): neither C14-TOA nor 5HE-C10-TMA were toxic
- Effect on frequency and severity of arthritis (S. aureus [9]): significantly reduced the frequency and severity of arthritis and joint destruction
- Numbers of viable staphylococci in the kidneys (S. aureus [9]; murine S. aureus infection model): did not, however, reduce
- MIC (S. aureus strain USA300): 12.5 µM and 4 µg/mL

Compound: CCCCCCCCCCCCCC(=O)C1=C(O)SCC1=O [C14-TTA, 3-tetradecanoylthiotetronic acid]
- Selectivity index (SI, CC50/MIC) [3]: 2
- CC50 at 24 h [4]: 26 µM and 8.3 µg/mL
- MIC (S. aureus strain BH48): 12.5 µM and 4 µg/mL
- MIC (S. aureus strain SH1000): 12.5 µM and 4 µg/mL
- Bactericidal activity (CLSI: at least 3-log reduction) (S. aureus USA300 LAC): bactericidal
- Extracellular ATP levels (ATP release relative to nisin 0.6 μM) [10]: least active
- CC50 (Haemolysis assay): 470 µM and 153 µg/mL
- Iron chelation (Iron chelation): do not chelate iron
- Reduction of biofilm viability (S. aureus biofilms [1]; resazurin): 2.5–3 fold
- Comparative anti-biofilm activity (S. aureus biofilms [1]): far less effective
- Propidium iodide fluorescence (uptake relative to nisin 0.6 μM) [11]: least active
- MIC (S. aureus strain BH1CC): 12.5 µM and 4 µg/mL
- MIC [8]: 4 µg/mL (≈ 12.3 µM)
- MIC ([8]; Staphylococcus aureus): 2 to 4 µg/mL (≈ 6.13 to 12.3 µM)
- MIC (S. aureus strain USA300): 12.5 µM and 4 µg/mL

Compound: CCCCCCCCCC(=O)CC(=O)N[C@H]1CCOC1=O [3-oxo-C12-HSL, N-(3-oxododecanoyl)-L-homoserine lactone, reference compound]
- MIC (S. aureus [2]; S. aureus growth): 100 μM and 30 mg/L

Compound: CCCCCCCCCC(=O)N[C@@H](Cc1c[nH]c2ccccc12)C(=O)N[C@H](CC(N)=O)C(=O)N[C@@H](CC(=O)O)C(=O)N[C@@H]1C(=O)NCC(=O)N[C@@H](CCCN)C(=O)N[C@@H](CC(=O)O)C(=O)N[C@H](C)C(=O)N[C@@H](CC(=O)O)C(=O)NCC(=O)N[C@H](CO)C(=O)N[C@@H]([C@H](C)CC(=O)O)C(=O)N[C@@H](CC(=O)c2ccccc2N)C(=O)O[C@@H]1C [daptomycin, reference compound]
- Comparative anti-biofilm activity (S. aureus biofilms [1]): most active antimicrobial evaluated

Compound: CCCCCCCCCC(=O)C1C(=O)NC(CCO)C1=O (centres unmarked) [5HE-C10-TMA, 5-hydroxyethyl-3-decanoyltetramic acid]
- Selection for resistance on serial passage (S. aureus [12]): did not select for resistance
- Activity against S. aureus biofilms (S. aureus biofilms [13]; at 200 mg/L): inactive
- Efficacy against S. aureus biofilms (S. aureus biofilms [13]): no efficacy
- Toxicity in murine arthritis model (S. aureus [9]): neither C14-TOA nor 5HE-C10-TMA were toxic
- Effect on frequency and severity of arthritis (S. aureus [9]): inactive
